The values that follow come from article PMC11926245, “Structural recognition and stabilization of tyrosine hydroxylase by the J-domain protein DNAJC12” (Nature Communications, 2025).

Experiment [1] concerns the target T1, TH (TH-WT, hTH1) (Homo sapiens, UniProt P07101).
T1 construct: full-length wild-type (C-terminal residue 497), expressed in E. coli as HisMBP fusion from pETMBP1a/hTH1, tags cut with TEV protease
Put plainly: differential scanning fluorimetry (SYPRO Orange). The following applies: 0.23 µM TH tetramer, 9 µM DA, ferrous ammonium sulfate; stabilization. It counts as binding. For orientation: Differential scanning fluorimetry follows unfolding on heating by fluorescence.

Experiment [2] concerns the target T2, TH:DNAJC12 complex (Homo sapiens, UniProt P07101).
T2 construct: both full-length wild-type, each expressed in E. coli as HisMBP fusion, tags cut with TEV protease; with DnaJ homolog subfamily C member 12
As to the kind of experiment: cryo-EM 3D reconstruction ([…] Å map). It counts as binding. The following applies: Fe(III)-catecholate complex; map EMD-18289, no PDB model deposited; regulatory helix 39-58 density at active sites.

Experiment [3] deals with T1, TH (TH-WT, hTH1). As to the kind of experiment: TH activity, L-Dopa quantified by HPLC with fluorescence detection. It counts as biochemical.
Experiment [4] has as its target T2, TH:DNAJC12 complex. The experiment is described as above. It counts as biochemical.
The target of experiment [5] is T2, TH:DNAJC12 complex. As to the kind of experiment: differential scanning fluorimetry (SYPRO Orange). It counts as binding. The settings on record: 0.23 µM TH:DNAJC12 complex, 9 µM DA, ferrous ammonium sulfate; stabilization.

One may read the IC50 as the concentration needed to halve the response being measured. The low end stands for greater potency in that assay, the high end for weaker potency in that assay.

T2 sequence (P07101 1-497 isoform P07101-3): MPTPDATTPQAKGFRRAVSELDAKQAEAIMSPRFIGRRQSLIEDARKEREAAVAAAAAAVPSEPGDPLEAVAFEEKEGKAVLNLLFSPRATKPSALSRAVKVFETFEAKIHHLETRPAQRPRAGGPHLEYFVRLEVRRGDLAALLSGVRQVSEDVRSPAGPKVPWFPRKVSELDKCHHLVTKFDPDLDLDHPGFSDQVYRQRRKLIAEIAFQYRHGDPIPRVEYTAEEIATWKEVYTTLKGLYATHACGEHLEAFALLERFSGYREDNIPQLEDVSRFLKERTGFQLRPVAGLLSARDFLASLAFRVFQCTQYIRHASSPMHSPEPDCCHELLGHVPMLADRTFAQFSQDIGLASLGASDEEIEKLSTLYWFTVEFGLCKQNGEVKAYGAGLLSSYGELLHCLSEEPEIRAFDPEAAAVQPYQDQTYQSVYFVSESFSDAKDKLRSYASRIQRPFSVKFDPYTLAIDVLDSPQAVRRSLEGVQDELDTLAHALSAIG
T2 sequence (Q9UKB3 whole entry partner, the tested form may be a part): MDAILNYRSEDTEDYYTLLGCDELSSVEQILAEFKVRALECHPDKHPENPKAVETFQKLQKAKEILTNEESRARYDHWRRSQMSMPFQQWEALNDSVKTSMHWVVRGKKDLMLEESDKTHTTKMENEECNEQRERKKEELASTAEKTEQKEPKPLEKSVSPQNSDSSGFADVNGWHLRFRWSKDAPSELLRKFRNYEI
T1 sequence (P07101 1-497 isoform P07101-3): as the sequence (P07101 1-497 isoform P07101-3) above

Consider `NCCc1ccc(O)c(O)c1` [dopamine], for which the Tm result in experiment [1] was “adding equimolar amounts of DA (per TH subunit) increased the Tm of TH”; in experiment [5] it was “we also observed a Tm increase for the TH:DNAJC12 complex in the presence of DA”. Moreover, the “cryo-EM 3D reconstruction (5.0 Å map)” value in experiment [2] is 3D reconstruction of TH:DNAJC12 in the presence of the feedback inhibitor DA (TH(DA):DNAJC12). Further, the IC50 came to 363 ± 82 nM in experiment [3] and 356 ± 103 nM in experiment [4].
